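1) Cells in 96-well plates. 2) Compound, 48 h, 5 concentrations. 3) Linear interpolation between surrounding doses. 4) Unreached endpoint = highest concentration. Abbreviation: GI50, concentration required for 50% inhibition of growth. TGI marks complete inhibition of growth.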
Columns and labels:
Assay in all cases: inhibition of tumour cell growth, NCI panel, 48 h
UACC-257 melanoma = tested on: UACC-257 melanoma
UO-31 renal = tested on: UO-31 renal
ACHN renal = tested on: ACHN renal
NCI-H460 lung = tested on: NCI-H460 lung
NCI-H23 lung = tested on: NCI-H23 lung
SN12C renal = tested on: SN12C renal
OVCAR-3 ovarian = tested on: OVCAR-3 ovarian
UACC-62 melanoma = tested on: UACC-62 melanoma
SK-OV-3 ovarian = tested on: SK-OV-3 ovarian
SNB-19 CNS = tested on: SNB-19 CNS
LOX IMVI melanoma = tested on: LOX IMVI melanoma
NCI/ADR-RES ovarian = tested on: NCI/ADR-RES ovarian
A498 renal = tested on: A498 renal
U251 CNS = tested on: U251 CNS
NCI-H522 lung = tested on: NCI-H522 lung
OVCAR-5 ovarian = tested on: OVCAR-5 ovarian
HOP-62 NSCLC = tested on: HOP-62 NSCLC
CCRF-CEM leukemia = tested on: CCRF-CEM leukemia
MCF7 breast = tested on: MCF7 breast
HCT-15 colon = tested on: HCT-15 colon
SNB-75 CNS = tested on: SNB-75 CNS
HS 578T breast = tested on: HS 578T breast
SK-MEL-28 melanoma = tested on: SK-MEL-28 melanoma
HCC-2998 colon = tested on: HCC-2998 colon
T-47D breast = tested on: T-47D breast
NCI-H226 lung = tested on: NCI-H226 lung
HCT-116 colon = tested on: HCT-116 colon
MALME-3M melanoma = tested on: MALME-3M melanoma
OVCAR-4 ovarian = tested on: OVCAR-4 ovarian
IGROV1 ovarian = tested on: IGROV1 ovarian
MDA-MB-435 = tested on: MDA-MB-435
786-0 renal = tested on: 786-0 renal
BT-549 breast = tested on: BT-549 breast
RXF 393 renal = tested on: RXF 393 renal
MDA-MB-231 breast = tested on: MDA-MB-231 breast
HOP-92 NSCLC = tested on: HOP-92 NSCLC
DU-145 prostate = tested on: DU-145 prostate
MOLT-4 leukemia = tested on: MOLT-4 leukemia
SR leukemia = tested on: SR leukemia
COLO 205 colon = tested on: COLO 205 colon
HT29 colon = tested on: HT29 colon
TK-10 renal = tested on: TK-10 renal
RPMI-8226 leukemia = tested on: RPMI-8226 leukemia
SF-539 CNS = tested on: SF-539 CNS
SW-620 colon = tested on: SW-620 colon
HL-60(TB) leukemia = tested on: HL-60(TB) leukemia
PC-3 prostate = tested on: PC-3 prostate
KM12 colon = tested on: KM12 colon
SK-MEL-5 melanoma = tested on: SK-MEL-5 melanoma
SF-268 CNS = tested on: SF-268 CNS
CAKI-1 renal = tested on: CAKI-1 renal
SK-MEL-2 melanoma = tested on: SK-MEL-2 melanoma
K-562 leukemia = tested on: K-562 leukemia
SF-295 CNS = tested on: SF-295 CNS
OVCAR-8 ovarian = tested on: OVCAR-8 ovarian
A549 NSCLC = tested on: A549 NSCLC
EKVX NSCLC = tested on: EKVX NSCLC
M14 melanoma = tested on: M14 melanoma

With `Cc1cc(/C=C2\SC(=Nc3ccccc3)N(C3CCCC3)C2=O)c(C)n1-c1ccc(Cl)cc1` the GI50 (UACC-257 melanoma) was > 100 µM, the TGI (UACC-257 melanoma) was > 100 µM and the GI50 (UO-31 renal) was > 100 µM. The TGI (UO-31 renal) was > 100 µM, the GI50 (ACHN renal) was > 100 µM and the TGI (ACHN renal) was > 100 µM. For the same molecule, the GI50 (NCI-H460 lung) was > 100 µM, the TGI (NCI-H460 lung) was > 100 µM and the GI50 (NCI-H23 lung) was > 100 µM. For the same molecule, the TGI (NCI-H23 lung) was > 100 µM, the GI50 (SN12C renal) was > 100 µM and the TGI (SN12C renal) was > 100 µM. The GI50 (OVCAR-3 ovarian) was > 100 µM, the TGI (OVCAR-3 ovarian) was > 100 µM and the GI50 (UACC-62 melanoma) was > 100 µM. For the same molecule, the TGI (UACC-62 melanoma) was > 100 µM, the GI50 (SK-OV-3 ovarian) was > 100 µM and the TGI (SK-OV-3 ovarian) was > 100 µM. The GI50 (SNB-19 CNS) was > 100 µM, the TGI (SNB-19 CNS) was > 100 µM and the GI50 (LOX IMVI melanoma) was > 100 µM. For the same molecule, the TGI (LOX IMVI melanoma) was > 100 µM, the GI50 (NCI/ADR-RES ovarian) was > 100 µM and the TGI (NCI/ADR-RES ovarian) was > 100 µM. For the same molecule, the GI50 (A498 renal) was 0.295 µM, the TGI (A498 renal) was > 100 µM and the GI50 (U251 CNS) was > 100 µM. For the same molecule, the TGI (U251 CNS) was > 100 µM, the GI50 (NCI-H522 lung) was > 100 µM and the TGI (NCI-H522 lung) was > 100 µM. For the same molecule, the GI50 (OVCAR-5 ovarian) was > 100 µM, the TGI (OVCAR-5 ovarian) was > 100 µM and the GI50 (HOP-62 NSCLC) was > 100 µM. The TGI (HOP-62 NSCLC) was > 100 µM, the GI50 (CCRF-CEM leukemia) was > 100 µM and the TGI (CCRF-CEM leukemia) was > 100 µM. The GI50 (MCF7 breast) was > 100 µM, the TGI (MCF7 breast) was > 100 µM and the GI50 (HCT-15 colon) was > 100 µM. The TGI (HCT-15 colon) was > 100 µM, the GI50 (SNB-75 CNS) was > 100 µM and the TGI (SNB-75 CNS) was > 100 µM. For the same molecule, the GI50 (HS 578T breast) was > 100 µM, the TGI (HS 578T breast) was > 100 µM and the GI50 (SK-MEL-28 melanoma) was > 100 µM. The TGI (SK-MEL-28 melanoma) was > 100 µM, the GI50 (HCC-2998 colon) was > 100 µM and the TGI (HCC-2998 colon) was > 100 µM. For the same molecule, the GI50 (T-47D breast) was > 100 µM, the TGI (T-47D breast) was > 100 µM and the GI50 (NCI-H226 lung) was > 100 µM. The TGI (NCI-H226 lung) was > 100 µM, the GI50 (HCT-116 colon) was > 100 µM and the TGI (HCT-116 colon) was > 100 µM. The GI50 (MALME-3M melanoma) was > 100 µM, the TGI (MALME-3M melanoma) was > 100 µM and the GI50 (OVCAR-4 ovarian) was > 100 µM. For the same molecule, the TGI (OVCAR-4 ovarian) was > 100 µM, the GI50 (IGROV1 ovarian) was > 100 µM and the TGI (IGROV1 ovarian) was > 100 µM. For the same molecule, the GI50 (MDA-MB-435) was > 100 µM, the TGI (MDA-MB-435) was > 100 µM and the GI50 (786-0 renal) was > 100 µM. The TGI (786-0 renal) was > 100 µM, the GI50 (BT-549 breast) was > 100 µM and the TGI (BT-549 breast) was > 100 µM. For the same molecule, the GI50 (RXF 393 renal) was > 100 µM, the TGI (RXF 393 renal) was > 100 µM and the GI50 (MDA-MB-231 breast) was > 100 µM. The TGI (MDA-MB-231 breast) was > 100 µM, the GI50 (HOP-92 NSCLC) was > 100 µM and the TGI (HOP-92 NSCLC) was > 100 µM. The GI50 (DU-145 prostate) was > 100 µM, the TGI (DU-145 prostate) was > 100 µM and the GI50 (MOLT-4 leukemia) was > 100 µM. The TGI (MOLT-4 leukemia) was > 100 µM, the GI50 (SR leukemia) was > 100 µM and the TGI (SR leukemia) was > 100 µM. For the same molecule, the GI50 (COLO 205 colon) was > 100 µM, the TGI (COLO 205 colon) was > 100 µM and the GI50 (HT29 colon) was > 100 µM. The TGI (HT29 colon) was > 100 µM, the GI50 (TK-10 renal) was > 100 µM and the TGI (TK-10 renal) was > 100 µM. For the same molecule, the GI50 (RPMI-8226 leukemia) was > 100 µM, the TGI (RPMI-8226 leukemia) was > 100 µM and the GI50 (SF-539 CNS) was > 100 µM. For the same molecule, the TGI (SF-539 CNS) was > 100 µM, the GI50 (SW-620 colon) was > 100 µM and the TGI (SW-620 colon) was > 100 µM. For the same molecule, the GI50 (HL-60(TB) leukemia) was > 100 µM, the TGI (HL-60(TB) leukemia) was > 100 µM and the GI50 (PC-3 prostate) was 75.5 µM. The TGI (PC-3 prostate) was > 100 µM, the GI50 (KM12 colon) was > 100 µM and the TGI (KM12 colon) was > 100 µM. For the same molecule, the GI50 (SK-MEL-5 melanoma) was > 100 µM, the TGI (SK-MEL-5 melanoma) was > 100 µM and the GI50 (SF-268 CNS) was > 100 µM. For the same molecule, the TGI (SF-268 CNS) was > 100 µM, the GI50 (CAKI-1 renal) was > 100 µM and the TGI (CAKI-1 renal) was > 100 µM. The GI50 (SK-MEL-2 melanoma) was > 100 µM, the TGI (SK-MEL-2 melanoma) was > 100 µM and the GI50 (K-562 leukemia) was > 100 µM. For the same molecule, the TGI (K-562 leukemia) was > 100 µM, the GI50 (SF-295 CNS) was > 100 µM and the TGI (SF-295 CNS) was > 100 µM. The GI50 (OVCAR-8 ovarian) was > 100 µM, the TGI (OVCAR-8 ovarian) was > 100 µM and the GI50 (A549 NSCLC) was > 100 µM. The TGI (A549 NSCLC) was > 100 µM.
For `Nc1nc(-c2cccc([N+](=O)[O-])c2)c(Br)c(=O)[nH]1`, the TGI (UACC-257 melanoma) was > 71.4 µM, the TGI (UO-31 renal) was > 100 µM and the TGI (ACHN renal) was > 100 µM. The TGI (NCI-H460 lung) was > 100 µM, the TGI (NCI-H23 lung) was > 100 µM and the TGI (SN12C renal) was > 100 µM. For the same molecule, the TGI (OVCAR-3 ovarian) was > 100 µM, the TGI (UACC-62 melanoma) was > 69.7 µM and the TGI (SK-OV-3 ovarian) was > 100 µM. For the same molecule, the TGI (SNB-19 CNS) was > 73 µM, the TGI (LOX IMVI melanoma) was > 100 µM and the TGI (NCI/ADR-RES ovarian) was > 100 µM. For the same molecule, the TGI (A498 renal) was > 100 µM, the TGI (U251 CNS) was > 100 µM and the TGI (NCI-H522 lung) was > 100 µM. The TGI (OVCAR-5 ovarian) was > 100 µM, the TGI (HOP-62 NSCLC) was > 100 µM and the TGI (CCRF-CEM leukemia) was > 100 µM. For the same molecule, the TGI (MCF7 breast) was > 65.3 µM, the TGI (HCT-15 colon) was > 100 µM and the TGI (SNB-75 CNS) was > 100 µM. For the same molecule, the TGI (HS 578T breast) was > 100 µM, the TGI (SK-MEL-28 melanoma) was > 100 µM and the TGI (HCC-2998 colon) was > 100 µM. For the same molecule, the TGI (T-47D breast) was > 100 µM, the TGI (NCI-H226 lung) was > 100 µM and the TGI (HCT-116 colon) was > 100 µM. The TGI (OVCAR-4 ovarian) was > 100 µM, the TGI (IGROV1 ovarian) was > 100 µM and the TGI (MDA-MB-435) was > 100 µM. The TGI (EKVX NSCLC) was > 100 µM, the TGI (786-0 renal) was > 100 µM and the TGI (BT-549 breast) was > 63 µM. The TGI (RXF 393 renal) was > 100 µM, the TGI (MDA-MB-231 breast) was > 100 µM and the TGI (HOP-92 NSCLC) was > 100 µM. For the same molecule, the TGI (DU-145 prostate) was > 100 µM, the TGI (MOLT-4 leukemia) was > 100 µM and the TGI (SR leukemia) was > 100 µM. The TGI (COLO 205 colon) was > 100 µM, the TGI (HT29 colon) was > 100 µM and the TGI (TK-10 renal) was > 100 µM. For the same molecule, the TGI (RPMI-8226 leukemia) was > 100 µM, the TGI (SF-539 CNS) was > 82 µM and the TGI (SW-620 colon) was > 100 µM. For the same molecule, the TGI (HL-60(TB) leukemia) was > 100 µM, the TGI (PC-3 prostate) was > 100 µM and the TGI (KM12 colon) was > 100 µM. The TGI (SK-MEL-5 melanoma) was > 91.1 µM, the TGI (SF-268 CNS) was > 100 µM and the TGI (CAKI-1 renal) was > 100 µM. For the same molecule, the TGI (SK-MEL-2 melanoma) was > 100 µM, the TGI (K-562 leukemia) was > 100 µM and the TGI (M14 melanoma) was > 64.2 µM. The TGI (SF-295 CNS) was > 66.6 µM, the TGI (OVCAR-8 ovarian) was > 100 µM and the TGI (A549 NSCLC) was > 71.4 µM.
